ChEMBL document CHEMBL2385022, “Therapeutic and pharmacokinetic characterizations of an anti-amyloidogenic bis-styrylbenzene derivative for Alzheimer's disease treatment” (Bioorg Med Chem Lett, 2013)
Activity calls are given as the source filed them. No cut-off for these calls is given here.

Key:
Mus musculus [1] = experiment: Cognitive enhancing effect in amyloid beta (1-42) infused ICR mouse assessed as increase in alternation behavior at 30 mg/kg/day, ip administered 1 day prior to amyloid beta (1-42) infusion and continued for 6 days measured on day 6 by Y-maze test (reference value: 64.1%); type: functional; details: route intraperitoneal
hERG (KCNH2) = hERG (KCNH2) (Homo sapiens, UniProt Q12809); experiment: Inhibition of human ERG in HEK293 cells at 10 uM by patch clamp assay relative to control; type: cell-based; details: HEK293 cells expressing human ERG
Sequence of hERG (KCNH2) (Q12809 whole entry): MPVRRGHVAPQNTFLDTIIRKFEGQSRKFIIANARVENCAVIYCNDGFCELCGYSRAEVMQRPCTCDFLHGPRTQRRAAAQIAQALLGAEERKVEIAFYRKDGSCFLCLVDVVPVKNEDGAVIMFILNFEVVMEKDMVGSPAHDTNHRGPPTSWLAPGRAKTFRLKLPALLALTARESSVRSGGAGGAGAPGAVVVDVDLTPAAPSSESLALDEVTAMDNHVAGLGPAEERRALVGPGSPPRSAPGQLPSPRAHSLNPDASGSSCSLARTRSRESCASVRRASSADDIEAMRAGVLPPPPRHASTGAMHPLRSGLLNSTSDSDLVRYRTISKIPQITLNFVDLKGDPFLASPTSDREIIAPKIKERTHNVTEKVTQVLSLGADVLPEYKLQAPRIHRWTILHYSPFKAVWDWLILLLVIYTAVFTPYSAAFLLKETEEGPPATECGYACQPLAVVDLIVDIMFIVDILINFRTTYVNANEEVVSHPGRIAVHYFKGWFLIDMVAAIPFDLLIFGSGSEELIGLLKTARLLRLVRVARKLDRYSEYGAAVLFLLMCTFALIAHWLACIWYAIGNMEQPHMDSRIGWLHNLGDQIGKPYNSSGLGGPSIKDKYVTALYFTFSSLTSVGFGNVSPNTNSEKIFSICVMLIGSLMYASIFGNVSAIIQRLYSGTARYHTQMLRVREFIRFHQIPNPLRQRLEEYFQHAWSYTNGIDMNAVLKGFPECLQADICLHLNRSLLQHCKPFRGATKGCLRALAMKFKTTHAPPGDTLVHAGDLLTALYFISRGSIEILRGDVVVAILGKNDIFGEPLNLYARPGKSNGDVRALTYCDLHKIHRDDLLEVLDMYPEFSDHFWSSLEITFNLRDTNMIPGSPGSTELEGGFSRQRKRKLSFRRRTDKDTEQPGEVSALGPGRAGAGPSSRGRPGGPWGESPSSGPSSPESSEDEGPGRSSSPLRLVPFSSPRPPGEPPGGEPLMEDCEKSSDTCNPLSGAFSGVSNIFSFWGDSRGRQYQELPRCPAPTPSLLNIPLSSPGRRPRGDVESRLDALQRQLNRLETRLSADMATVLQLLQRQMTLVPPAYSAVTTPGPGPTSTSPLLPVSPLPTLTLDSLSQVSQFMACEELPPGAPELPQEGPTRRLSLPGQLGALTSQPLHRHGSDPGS

[2] = Acute toxicity in po dosed Sprague-Dawley rat assessed as mortality after 14 days; type: organism-based; details: in vivo
Rattus norvegicus [3] = experiment: Toxicity in Sprague-Dawley rat assessed as change in body weight at 2000 mg/kg, po after 14 days (reference value: 199.1 +/- 4.8 g); type: organism-based; parameters: dose 2000 mg/kg, route oral; details: in vivo, 336 h
Rattus norvegicus [4] = experiment: Toxicity in Sprague-Dawley rat assessed as change in body weight at 2000 mg/kg, po after 10 days (reference value: 175.9 +/- 5.1 g); type: organism-based; parameters: dose 2000 mg/kg, route oral; details: in vivo, 240 h
Rattus norvegicus [5] = experiment: Toxicity in Sprague-Dawley rat assessed as change in body weight at 2000 mg/kg, po after 5 days (reference value: 148.4 +/- 3.2 g); type: organism-based; parameters: dose 2000 mg/kg, route oral; details: in vivo, 120 h
Rattus norvegicus [6] = experiment: Toxicity in Sprague-Dawley rat assessed as change in body weight at 2000 mg/kg, po after 1 day (reference value: 130.6 +/- 4.6 g); type: organism-based; parameters: dose 2000 mg/kg, route oral; details: in vivo, 24 h
Rattus norvegicus [7] = experiment: Toxicity in Sprague-Dawley rat assessed as change in body weight at 1000 mg/kg, po after 14 days (reference value: 199.1 +/- 4.8 g); type: organism-based; parameters: dose 1000 mg/kg, route oral; details: in vivo, 336 h
Rattus norvegicus [8] = experiment: Toxicity in Sprague-Dawley rat assessed as change in body weight at 1000 mg/kg, po after 10 days (reference value: 175.9 +/- 5.1 g); type: organism-based; parameters: dose 1000 mg/kg, route oral; details: in vivo, 240 h
Rattus norvegicus [9] = experiment: Toxicity in Sprague-Dawley rat assessed as change in body weight at 1000 mg/kg, po after 1 day (reference value: 130.6 +/- 4.6 g); type: organism-based; parameters: dose 1000 mg/kg, route oral; details: in vivo, 24 h
Rattus norvegicus [10] = experiment: Toxicity in Sprague-Dawley rat assessed as change in body weight at 1000 mg/kg, po after 5 days (reference value: 148.4 +/- 3.2 g); type: organism-based; parameters: dose 1000 mg/kg, route oral; details: in vivo, 120 h
Rattus norvegicus [11] = experiment: Toxicity in Sprague-Dawley rat assessed as change in body weight at 500 mg/kg, po after 14 days (reference value: 199.1 +/- 4.8 g); type: organism-based; parameters: dose 500 mg/kg, route oral; details: in vivo, 336 h
Rattus norvegicus [12] = experiment: Toxicity in Sprague-Dawley rat assessed as change in body weight at 500 mg/kg, po after 10 days (reference value: 175.9 +/- 5.1 g); type: organism-based; parameters: dose 500 mg/kg, route oral; details: in vivo, 240 h
Rattus norvegicus [13] = experiment: Toxicity in Sprague-Dawley rat assessed as change in body weight at 500 mg/kg, po after 5 days (reference value: 148.4 +/- 3.2 g); type: organism-based; parameters: dose 500 mg/kg, route oral; details: in vivo, 120 h
Rattus norvegicus [14] = experiment: Toxicity in Sprague-Dawley rat assessed as change in body weight at 500 mg/kg, po after 1 day (reference value: 130.6 +/- 4.6 g); type: organism-based; parameters: dose 500 mg/kg, route oral; details: in vivo, 24 h
[15] = Apparent permeability from apical to basolateral side in mouse bEND.3 /rat C6 co-culture cell model after 1 hr by Transwell assay; type: ADME
[16] = Oral bioavailability in ICR mouse at 20 mg/kg; type: ADME, organism-based; details: in vivo
[17] = Half life in ICR mouse plasma at 10 mg/kg, iv; type: ADME, organism-based; parameters: dose 10 mg/kg, route intravenous
[18] = Half life in ICR mouse brain at 10 mg/kg, iv; type: ADME, organism-based; parameters: dose 10 mg/kg, route intravenous
[19] = Half life in ICR mouse plasma at 20 mg/kg, po; type: ADME, organism-based; parameters: dose 20 mg/kg, route oral
[20] = Half life in ICR mouse brain at 20 mg/kg, po; type: ADME, organism-based; parameters: dose 20 mg/kg, route oral
[21] = Tmax in ICR mouse plasma at 10 mg/kg, iv; type: ADME, organism-based; parameters: dose 10 mg/kg, route intravenous
[22] = Tmax in ICR mouse brain at 10 mg/kg, iv; type: ADME, organism-based; parameters: dose 10 mg/kg, route intravenous
[23] = Tmax in ICR mouse plasma at 20 mg/kg, po; type: ADME, organism-based; parameters: dose 20 mg/kg, route oral
[24] = Tmax in ICR mouse brain at 20 mg/kg, po; type: ADME, organism-based; parameters: dose 20 mg/kg, route oral
[25] = Cmax in ICR mouse brain at 10 mg/kg, iv; type: ADME, organism-based; parameters: dose 10 mg/kg, route intravenous
[26] = Cmax in ICR mouse plasma at 10 mg/kg, iv; type: ADME, organism-based; parameters: dose 10 mg/kg, route intravenous
[27] = Cmax in ICR mouse plasma at 20 mg/kg, po; type: ADME, organism-based; parameters: dose 20 mg/kg, route oral
[28] = Cmax in ICR mouse brain at 20 mg/kg, po; type: ADME, organism-based; parameters: dose 20 mg/kg, route oral
[29] = AUC (0 to 24 hrs) in ICR mouse plasma at 10 mg/kg, iv; type: ADME, organism-based; parameters: time < 24 hr, dose 10 mg/kg, route intravenous
[30] = AUC (0 to 24 hrs) in ICR mouse brain at 10 mg/kg, iv; type: ADME, organism-based; parameters: time < 24 hr, dose 10 mg/kg, route intravenous
[31] = AUC (0 to 24 hrs) in ICR mouse brain at 20 mg/kg, po; type: ADME, organism-based; parameters: time < 24 hr, dose 20 mg/kg, route oral
[32] = AUC (0 to 24 hrs) in ICR mouse plasma at 20 mg/kg, po; type: ADME, organism-based; parameters: time < 24 hr, dose 20 mg/kg, route oral
[33] = molecular target: Amyloid-beta precursor protein (Homo sapiens) (UniProt P05067); experiment: Inhibition of amyloid beta (1-42) fibril aggregation (unknown origin) at 100 uM after 20 hrs by transmission electron microscopic analysis
Sequence of Amyloid-beta precursor protein (Homo sapiens) (P05067 whole entry): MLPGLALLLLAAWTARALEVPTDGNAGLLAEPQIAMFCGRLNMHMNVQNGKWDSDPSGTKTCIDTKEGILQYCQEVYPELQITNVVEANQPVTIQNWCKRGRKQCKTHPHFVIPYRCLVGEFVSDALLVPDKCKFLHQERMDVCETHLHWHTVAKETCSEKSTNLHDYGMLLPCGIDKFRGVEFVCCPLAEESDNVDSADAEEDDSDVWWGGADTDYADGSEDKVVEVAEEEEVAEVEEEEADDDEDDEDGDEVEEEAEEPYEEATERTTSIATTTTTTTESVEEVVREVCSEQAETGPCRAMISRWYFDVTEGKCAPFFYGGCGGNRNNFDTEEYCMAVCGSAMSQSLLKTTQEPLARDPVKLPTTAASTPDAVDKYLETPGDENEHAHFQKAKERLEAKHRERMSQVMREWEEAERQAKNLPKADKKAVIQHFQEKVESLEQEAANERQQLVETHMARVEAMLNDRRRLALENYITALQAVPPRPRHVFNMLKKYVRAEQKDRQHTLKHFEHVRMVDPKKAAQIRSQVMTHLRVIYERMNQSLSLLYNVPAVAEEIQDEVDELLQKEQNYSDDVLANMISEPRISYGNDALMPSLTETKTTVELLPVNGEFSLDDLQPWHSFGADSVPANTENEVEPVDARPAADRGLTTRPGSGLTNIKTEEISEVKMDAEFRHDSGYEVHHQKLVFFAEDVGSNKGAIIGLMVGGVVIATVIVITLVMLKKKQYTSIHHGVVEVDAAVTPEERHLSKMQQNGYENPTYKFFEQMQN

Mus musculus [34] = experiment: Ratio of drug level in brain to plasma in ICR mouse at 10 mg/kg, iv […]; details: in vivo
Mus musculus [35] = experiment: Ratio of drug level in brain to plasma in ICR mouse at 20 mg/kg, po […]; details: in vivo
Rattus norvegicus [36] = experiment: Acute toxicity in Sprague-Dawley rat assessed as mortality at 500 to 2000 mg/kg, po after 14 days; type: organism-based; parameters: dose 500-2000 mg/kg, route oral; details: in vivo, 336 h

| Structure (SMILES) | Activity (Mus musculus [1]) | inhibition at 10 µM (hERG (KCNH2)) | Activity (Rattus norvegicus [3]) | Activity (Rattus norvegicus [4]) | Activity (Rattus norvegicus [5]) | Activity (Rattus norvegicus [6]) | Activity (Rattus norvegicus [7]) | Activity (Rattus norvegicus [8]) | Activity (Rattus norvegicus [9]) | Activity (Rattus norvegicus [10]) | Activity (Rattus norvegicus [11]) | Activity (Rattus norvegicus [12]) | Activity (Rattus norvegicus [13]) | Activity (Rattus norvegicus [14]) | Papp A→B at 1 h [15] | inhibition [33] | Activity (Rattus norvegicus [36]) | also measured |
| --- | --- | --- | --- | --- | --- | --- | --- | --- | --- | --- | --- | --- | --- | --- | --- | --- | --- | --- |
| COc1cc(/C=C/c2cccc(/C=C/c3ccc(N(C)C)c(OC)c3)c2)ccc1N(C)C | 70% | 14% | 174.6 g | 157.8 g | 128.3 g | 132.4 g | 182.2 g | 164.2 g | 132 g | 138.9 g | 183.9 g | 164.1 g | 142.6 g | 131.5 g | 670 ×10⁻⁶ cm/s | Active |  | LD50 at 336 h [2]: > 2000 mg/kg; bioavailability [16]: 46.2%; half-life [17]: 7.3 h; half-life [18]: 6.04 h; half-life [19]: 9.4 h; half-life [20]: 14.5 h; Tmax [21]: 4.8 min; Tmax [22]: 0.4 h; Tmax [23]: 1 h; Tmax [24]: 4.7 h; Cmax [25]: 1410 ng/mL; Cmax [26]: 13100 ng/mL; Cmax [27]: 3490 ng/mL; Cmax [28]: 395 ng/mL; AUC(0-t) at 24 h [29]: 31600 ng·h/mL; AUC(0-t) at 24 h [30]: 8100 ng·h/mL; AUC(0-t) at 24 h [31]: 4530 ng·h/mL; AUC(0-t) at 24 h [32]: 29200 ng·h/mL; Drug uptake (Mus musculus [34]): 26%; Drug uptake (Mus musculus [35]): 15% |
| CNc1ccc(/C=C/c2cccc(/C=C/c3ccc(NC)c(OC)c3)c2)cc1OC |  |  |  |  |  |  |  |  |  |  |  |  |  |  |  |  | Non-toxic |  |
| COc1cc(/C=C/C(=O)CC(=O)/C=C/c2ccc(O)c(OC)c2)ccc1O |  |  |  |  |  |  |  |  |  |  |  |  |  |  |  | Active |  |  |
| NCCCS(=O)(=O)O [TRAMIPROSATE] | 67.3% | 18% | 194.3 g | 171.5 g | 147.2 g | 131.4 g | 195.4 g | 174.7 g | 131.1 g | 149.6 g | 188 g | 167.2 g | 145.3 g | 130.7 g |  |  | Non-toxic |  |
| COC(=O)c1ccccc1-c1c2ccc(=N)cc-2oc2cc(N)ccc12.Cl [RHODAMINE123] |  |  |  |  |  |  |  |  |  |  |  |  |  |  | 32 ×10⁻⁶ cm/s |  |  |  |
